Values quoted from earlier work in US20070225258A1, “COMPOSITIONS COMPRISING BISPHOSPHONATE AND AN ANTIFOLATE” (PROPRIUS PHARMACEUTICALS, INC., priority 2006, published 2007).

Tested on: patients with RA

Structure (SMILES): CN(Cc1cnc2nc(N)nc(N)c2n1)c1ccc(C(=O)N[C@@H](CCC(=O)O)C(=O)O)cc1 [methotrexate]
- Proportion of RA patients in whom treatment is effective: effective in only one in three patients
